Experiments:
MC38 cells = assay: RT-PCR analysis with neojunction primers; type: cell-based, murine; settings: 10 μM, 6 hours
Method: [FIG. 5-2] Continuation of FIG. 5. D and E: RT-PCR analysis for splice-neoantigen coding forms (splice-NA forms) in MC38 cells treated with 10 µM Compound 1 or vehicle control (0.1% DMSO) for 6 hours. Actb served as a loading control. * represents p<0.05, ** represents p<0.01, and *** represents p<0.001. F: Splice-neoantigen producing rates calculated from RNA-seq data (n=3 biological replicates) are indicated as the APSI (Compound 1-DMSO). All data are shown as the mean±SEM. All experiments were performed at least twice. Statistical significance was determined using unpaired Student's t-test for (B) and (E).
In addition to the RNA-seq analysis, the induction of these splice-neoantigen-coding transcripts via treatment with Compound 1 was also validated using RT-PCR analysis with neojunction primers in MC38 cells (FIGS. 5-2D and 5-2E). The immunogenicity of the identified splice-neoantigens was confirmed using an IFN-γ ELISpot assay.
Total RNA was extracted from cells using a RNeasy Mini Kit (Qiagen), according to the manufacturer's protocol, and subjected to reverse transcription using a High Capacity cDNA Reverse Transcription Kit (Applied Biosystems, Foster City, CA). Genes were amplified with KOD One DNA polymerase (ToYoBo) and target-specific primer sets. […] Ethidium bromide-stained images were captured using a ChemiDoc MP Imaging System and the data were analyzed using ImageJ software. […]

MC38 tumors = assay: MC38 tumor-bearing model; type: in vivo
Method: [FIG. 1-1] FIG. 1. Chemical activation of SRSFs exerts antitumor effects in a CD8^+ T cell-dependent manner and potentiates the response to PD-1 blockade. A: Experimental procedure involving an MC38 tumor-bearing model. B and C: Tumor volumes (B) and survival (C) are shown (n=12/group). ** represents p<0.01; and *** represents p<0.001. D and E: MC38 cells were treated with Compound 1 for 72 hours (D) or for the indicated time (E). Cell proliferation and cell death were measured using CCK-8 and LDH assays, respectively (n=3/group). F and G: Representative images (F) and quantitative data (G) of flow cytometry are shown (n=[…]/group). * represents p<0.05. H: Experimental procedure of antibody injection in an MC38 tumor-bearing model.
[FIG. 1-2] Continuation of FIG. 1. I to L; Representative images (I and K) and quantitative data (J and L) of flow cytometry are shown (n=7/group for spleen (J); n=10/group for tumor (L)). *** represents p<0.001. M and N: Tumor growth curves (M) and tumor volumes on day 23 (N) are shown (n=10/group). * represents p<0.05. “ns” represents “not significant”. O and P: Tumor volumes of mice (n=12/group) are shown collectively (O) or individually (P). ** represents p<0.01, and *** represents p<0.001, vs. isotype IgG+vehicle. # represents p<0.05, and […] represents p<0.001, between the indicated groups. Q: Changes in body weight of mice (n=5/group). In FIG. 1, all data are shown as the mean±SEM. All experiments were performed at least twice. Statistical significance was determined using unpaired Student's t-test for (G), (J), (L), and (N), and one-way ANOVA followed by Bonferroni's multiple comparisons test for (B) and (O).
First, in vivo activity was assessed using syngeneic MC38 tumors intradermally transplanted into […] mice (FIG. 1-1A).
Based on these observations, whether the Compound 1 induced antitumor effects were due to enhanced cancer immunity was then examined. Endogenous CD8^+ T cells were depleted using CD8-depleting antibody (αCD8), and the antitumor effects of Compound 1 administration were evaluated (FIG. 1-1H).

[1] = syngeneic MC38 tumors intradermally transplanted

## Clc1nc(NCc2ccco2)c2[nH]cnc2n1 [Compound 1]
MC38 cells
  splice-neoantigen-coding transcripts: induction
MC38 tumors; CD8-depleting antibody (αCD8)
  tumor suppression when CD8^+ T cells were depleted: not effective
MC38 tumors; day 23, vs. isotype IgG+vehicle
  suppressed tumor growth: 28.5%
MC38 tumors; extracted tumors, flow cytometry
  frequency of tumor-infiltrating CD8+ T cells: about 1.5 fold
MC38 tumors; host dendritic cells or macrophages
  changes in the expression of PD-L1: not detected
MC38 tumors; mouse, in vivo
  body weight or apparent adverse effects: no change in body weight or apparent adverse effects
MC38 tumors; [1]
  in vivo tumor growth: tumor growth suppression
  survival: prolonged survival
